Data taken from patent US8211924B2, “1-(azolin-2-yl)amino-1,2-diphenylethane compounds for combating animal pests” (BASF SE, priority 2007, dated 2012).
Read-outs that look alike come from different tables or passages of the source.

Key:
Experiment in all cases: whole plant or invertebrate
Format in all cases: in vivo
[1] = test system: Green Peach Aphid (Myzus persicae); settings: 120 h, pepper leaves dipped, determined after 5 days, read-out: mortality in comparison with untreated controls
Experimental: (§1) Pepper plants in the 2nd leaf-pair stage (variety ‘California Wonder’) are infested with approximately 40 laboratory-reared aphids by placing infested leaf sections on top of the test plants. The leaf sections are removed after 24 hours. The leaves of the intact plants are dipped into gradient solutions of the test compound. Aphid mortality on the treated plants, relative to mortality on check plants, is determined after 5 days.

Silverleaf Whitefly = settings: Bemisia argentifolii; for mortality at 10 ppm: concentration 10 ppm; for mortality at 100 ppm: concentration 100 ppm
Experimental: Selected cotton plants were grown to the cotyledon state (one plant per pot). The cotyledons were dipped into the test solution to provide complete coverage of the foliage and placed in a well-vented area to dry. […] The tip, containing the collected insects, was then gently inserted into the soil containing the treated plant, allowing insects to crawl out of the tip to reach the foliage for feeding. The cups were covered with a re-usable screened lid (150 micron mesh polyester screen PeCap from Tetko Inc). Test plants were maintained in the holding room at about 25° C. and 20-40% relative humid-ity for 3 days avoiding direct exposure to the fluorescent light (24 hour photoperiod) to prevent trapping of heat inside the cup. Mortality was assessed 3 days after treatment of the plants.
by evaluation of the test shown in paragraph III.).

[2] = test system: Cotton aphid (Aphis gossypi); settings: 120 h, cotton cotyledons dipped, determined after 5 days, read-out: mortality in comparison with untreated controls
Experimental: as §1, with “Cotton” for “Pepper”, “cotyledon” for “2nd leaf-pair”, “‘Delta Pine’)” for “‘California Wonder’)”, “100” for “40”, “cotyledons” for “leaves”

[3] = 72 h, 300 ppm, cotton cotyledons dipped, assessed 3 days after treatment, read-out: mortality in comparison with untreated controls
[4] = in Gossypium hirsutum, comparative example 1, test of paragraph III, read-out: mortality in comparison with untreated controls [%]
[5] = in Gossypium hirsutum, concentration 300 ppm, comparative example 1, test of paragraph III, read-out: mortality in comparison with untreated controls [%]

SMILES | mortality at 300 ppm [1] [%] | mortality at 300 ppm (Silverleaf Whitefly; [3]) [%] | mortality at 300 ppm [2] [%] | mortality at 10 ppm (Silverleaf Whitefly; [4]) [%] | mortality at 100 ppm (Silverleaf Whitefly; [4]) [%] | mortality at 300 ppm (Silverleaf Whitefly; [5]) [%]
Cc1cc(C)cc(CC(N=C2SCCN2C2=NCCS2)c2cccc3c2OC(F)(F)O3)c1 (stereo not drawn) [Example 3, 1-(4,5,4′,5′-tetrahydro-[2,3]-bithiazolyl-2′-ylidene)amino-1-(2,2-difluoro-benzo[1,3]dioxol-4-yl)-2-(3,5-dimethyl-phenyl)-ethane] | > 70 | > 70 | > 70 |  |  | 
Cc1cc(C)cc(CC(N=C2SCCN2CCCOC2CCCCO2)c2cccc(Cl)c2Cl)c1 (stereo not drawn) [Example 2, 1-{3-[3-(tetrahydropyran-2-yloxy)propyl]thiazolidin-2-ylidene}amino-1-(2,3-dichlorophenyl)-2-(3,5-dimethylphenyl)-ethane] | > 70 | > 70 | > 70 |  |  | 
Cc1cc(C)cc(CC(N=C2SCCN2C(=S)Nc2cccc(C(F)(F)F)c2)c2cccc(Cl)c2Cl)c1 (stereo not drawn) [Example 4, 2-[1-(2,3-dichlorophenyl)-2-(3,5-dimethylphenyl)ethylimino]-thiazolidine-3-carbothioic acid (3-trifluoromethylphenyl)amide] | > 70 | > 70 | > 70 | 50 | 100 | 100
Cc1cc(C)cc(CC(NC2=NCCS2)c2cccc(Cl)c2Cl)c1 (stereo not drawn) [compound C.3, reference compound] |  |  |  | 0 | 100 | 100
C#CCN1CCSC1=NC(Cc1cc(C)cc(C)c1)c1cccc(Cl)c1Cl (stereo not drawn) [Example 1, 1-(3-prop-2-ynyl-thiazolidin-2-ylidene)amino-1-(2,3-dichlorophenyl)-2-(3,5-dimethylphenyl)-ethane] | > 70 | > 70 | > 70 | 100 | 100 | 100
